# Paper PMC5550016, “Aminophosphinates against Helicobacter pylori ureolysis—Biochemical and whole-cell inhibition characteristics” (PLoS ONE, 2017)
# Where two headings read alike, the source gives them in different places.
# Experiments:
# [1] = molecular target: T1, urease in intact E. coli (pGEM::ureOP) cells (Helicobacter pylori, UniProt B5Z674); assay: Urease inhibition in whole cells of E. coli + pGEM::ureOP; format: cell-based; details: IC50 exceeding 2 mM considered not active
# T1 construct: plasmid pGEM::ureOP, which encodes the entire urease gene cluster, was used to produce recombinant H. pylori urease; expressed in transfected cells; host or cells: E. coli Rosetta2 (DE3) transformed with pGEM::ureOP
# T1 sequence (B5Z674 whole entry, looked up): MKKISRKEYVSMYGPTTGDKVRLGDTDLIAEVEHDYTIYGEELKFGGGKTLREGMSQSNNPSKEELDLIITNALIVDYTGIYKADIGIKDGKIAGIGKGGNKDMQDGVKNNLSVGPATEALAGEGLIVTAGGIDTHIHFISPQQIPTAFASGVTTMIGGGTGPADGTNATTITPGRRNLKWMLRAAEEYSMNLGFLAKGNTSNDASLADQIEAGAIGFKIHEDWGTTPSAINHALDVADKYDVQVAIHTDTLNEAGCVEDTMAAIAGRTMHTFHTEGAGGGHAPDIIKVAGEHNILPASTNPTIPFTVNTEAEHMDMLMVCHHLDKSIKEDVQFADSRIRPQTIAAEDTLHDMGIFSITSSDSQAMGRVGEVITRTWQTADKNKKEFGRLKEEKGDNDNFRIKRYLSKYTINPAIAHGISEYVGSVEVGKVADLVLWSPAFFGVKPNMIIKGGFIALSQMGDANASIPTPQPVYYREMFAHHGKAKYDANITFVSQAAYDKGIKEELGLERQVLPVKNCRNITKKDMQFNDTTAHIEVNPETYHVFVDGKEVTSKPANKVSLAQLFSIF
# Experimental: The expression strain E. coli + pGEM::ureOP was cultured in 150 mL of LB broth (Biocorp, Poland) with 100 μg/mL ampicillin (Polfa, Tarchomin, Poland) at 37°C and induced with IPTG (0.75 mM) and Ni^2+ (0.75 mM) during the exponential growth phase, which was determined by the OD600 measurements (OD600 = 0.6). Further expression was conducted for 24 h at 22°C. The bacterial culture (1 mL) was harvested via centrifugation (2 min, 20 376 x g, 37°C) and washed three times with PBS. The pellets from 1-mL samples of the expression cell culture were resuspended in 100 μL of PBS. The hydrolysis of urea that is catalyzed by whole bacterial cells was performed in 96-well plates (Rotilabo, U-profile). The reaction progress curves were obtained by the addition of bacterial cells (1×10^9 CFU/mL final concentration) into mixtures (300 μL final volume) that contained 5 mM urea and various inhibitor concentrations that depended on their inhibitory strength. Alternatively, the reaction was initiated via the addition of a concentrated solution of urea after a 120-min preincubation of bacterial cells with the inhibitor. Samples (50 μL) of the reaction mixture were removed after the appropriate reaction time. The enzymatic reactions in the samples were terminated via the introduction of 100 μL of phenol-sodium nitroprusside solution, immediately followed by the addition of 100 μL of NaOH-hypochlorite solution. The absorption of indophenol blue was measured at 650 nm using a TECAN-Sunrise absorbance reader equipped with a gradient filter and Magellan software. The IC50 values were determined from the linear regression of the urease activity versus the logarithm of the inhibitor concentration. The reaction was studied in the absence and in the presence of the inhibitor. The influence of dimethylformamide (DMF), which was used as a solvent for several compounds, was also determined.
# [2] = tested on: immortalized murine endothelial cell line from peripheral lymph node HEC A10; assay: Sulforhodamine B antiproliferative assay, HEC A10; format: cell-based; details: Mus musculus, compound 0.5 mM, 72 h, read-out: % Proliferation inhibition ± SD
# Experimental: (§1) The BALB/3T3 cell line was cultured in Dulbecco MEM (Gibco, Scotland) supplemented with 10% (v/v) FBS (Sigma-Aldrich, Poznań, Poland) and 2 mM L-glutamine (Sigma-Aldrich, Poznań, Poland). The MCF-10A cell line was cultured in F-12 Nutrient mixture supplemented with 5% (v/v) horse serum (both Gibco, Scotland), 0.05 μg/mL cholera toxin, 10 μg/mL insulin, 0.5 μg/mL hydrocortisone, and 20 ng/mL EGFH (all Sigma-Aldrich, Poznań, Poland). The Eph4-Ev cell line was cultured in Dulbecco MEM supplemented with 2 mM L-glutamine, 10% (v/v) calf bovine serum (ATCC Rockville, Maryland, USA) and puromycin (Sigma-Aldrich, Poznań, Poland). The HEC A10 cell line was cultured in OPTI-MEM (IIET, Wroclaw, Poland) supplemented with 2 mM L-glutamine and 5% (v/v) FBS. All culture media were additionally supplemented with antibiotics: 100 U/mL penicillin and 100 μg/mL streptomycin (both Polfa-Tarchomin, Poland). During all experiments, cells were maintained in a humid atmosphere at 37°C and 5% CO2 and passaged twice a week using EDTA-Trypsin (pH 8; IIET, Wroclaw, Poland) solution as a detachment agent.
# (§2) This assay was used as previously described with minor modifications. Briefly, 24 h before adding the tested compounds, cells were seeded in 96-well plates (Sarstedt, Germany) in appropriate culture medium with 10^5 […] (100 μL/well). Cells were treated with each compound in at least four concentrations in the range from 500–4 μM for 72 h. Next, cells were fixed with 50 μL/well of 50% (w/v) trichloroacetic acid (Avantor Performance Materials, Gliwice, Poland). After a 1-hour incubation, the plates were washed several times with tap water, and 50 μL of 0.4% (w/v) solution of sulforhodamine B (Sigma-Aldrich, Germany) in 1% (v/v) acetic acid (Avantor Performance Materials, Gliwice, Poland) was added to each well. After a 30-min incubation at room temperature, unbound dye was washed out with 1% (v/v) acetic acid, whereas bound dye was solubilized with 10 mM unbuffered TRIS (Avantor Performance Materials, Gliwice, Poland) solution. The entire procedure was performed using an EL-406 washing station (BioTek Instruments, USA). Next, absorbance at 540 nm was measured using a Synergy H4 Hybrid Reader (BioTek Instruments, USA). Compounds at each concentration were tested in triplicate in a single experiment, and each experiment was repeated three times independently. The results were calculated using the Prolab-3 system based on Cheburator 0.4 software and was presented as proliferation inhibition percentages at the highest concentration used.
# [3] = tested on: human mammary gland MCF-10A; assay: Sulforhodamine B antiproliferative assay, MCF-10A; format: cell-based; details: compound 0.5 mM, 72 h, read-out: % Proliferation inhibition ± SD
# Experimental: as §1, §2
# [4] = molecular target: T2, purified recombinant urease from H. pylori (Helicobacter pylori, UniProt B5Z674); assay: Inhibition of purified recombinant H. pylori urease (phenol-hypochlorite, Lineweaver-Burk); format: biochemical; details: 50 mM phosphate buffer pH 7.5, 37°C, 0.1–2.5 mM urea, competitive reversible inhibition
# T2 construct: plasmid pGEM::ureOP, which encodes the entire urease gene cluster, was used to produce recombinant H. pylori urease; made in house; host or cells: E. coli Rosetta2 (DE3) + pGEM::ureOP
# T2 sequence (B5Z674 whole entry, looked up): as above
# Experimental: The kinetic parameters of urease were determined by measuring the initial rates of the reactions in 50 mM phosphate buffer (pH 7.5) at 37°C. Ammonia was routinely quantified by the phenol hypochlorite method as reported previously.
# Inhibition studies were conducted by initiating the enzymatic reaction with the addition of the enzyme into assay mixtures (200 μL total volume) containing increasing concentrations of inhibitors and 0.1–2.5 mM urea. After 15 min of incubation at 37°C, the reaction was stopped by adding phenol-hypochlorite reagents and the absorbance of the formed indophenol blue complexes was measured at 650 nm. The Ki values were determined from Lineweaver-Burk plots after testing at least five inhibitor concentrations in a range that depended on their inhibitory strength. The concentration of inhibitor that caused the loss of 50% of the enzyme’s activity (IC50) was determined from the measurements that were performed at a urea concentration of 0.6 mM and calculated using the linear regression of the urease activity versus the logarithm of the inhibitor concentrations.
# The values of Ki and IC50 for all analyzed compounds were calculated using the appropriate equations in GraphPad Prism 5. Errors were reported with two significant digits, and each measured parameter was given with the same number of decimal places as its error [32].
# [5] = molecular target: T3, urease in intact H. pylori J99 (Helicobacter pylori, UniProt P69997); assay: Urease inhibition in whole cells of H. pylori J99; format: cell-based
# T3 construct: In the intact H. pylori J99 cells, the urease susceptibility profile was similar to that of E. coli (pGEM::ureOP); endogenous in cells
# T3 sequence (Q9ZMZ4 whole entry): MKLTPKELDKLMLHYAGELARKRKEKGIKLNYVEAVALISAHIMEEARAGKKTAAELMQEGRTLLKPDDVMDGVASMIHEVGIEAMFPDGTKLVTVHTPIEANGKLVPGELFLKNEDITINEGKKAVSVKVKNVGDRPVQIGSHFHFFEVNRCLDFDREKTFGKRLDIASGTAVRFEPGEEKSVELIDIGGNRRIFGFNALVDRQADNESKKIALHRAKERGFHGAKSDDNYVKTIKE
# T3 sequence (P69997 whole entry): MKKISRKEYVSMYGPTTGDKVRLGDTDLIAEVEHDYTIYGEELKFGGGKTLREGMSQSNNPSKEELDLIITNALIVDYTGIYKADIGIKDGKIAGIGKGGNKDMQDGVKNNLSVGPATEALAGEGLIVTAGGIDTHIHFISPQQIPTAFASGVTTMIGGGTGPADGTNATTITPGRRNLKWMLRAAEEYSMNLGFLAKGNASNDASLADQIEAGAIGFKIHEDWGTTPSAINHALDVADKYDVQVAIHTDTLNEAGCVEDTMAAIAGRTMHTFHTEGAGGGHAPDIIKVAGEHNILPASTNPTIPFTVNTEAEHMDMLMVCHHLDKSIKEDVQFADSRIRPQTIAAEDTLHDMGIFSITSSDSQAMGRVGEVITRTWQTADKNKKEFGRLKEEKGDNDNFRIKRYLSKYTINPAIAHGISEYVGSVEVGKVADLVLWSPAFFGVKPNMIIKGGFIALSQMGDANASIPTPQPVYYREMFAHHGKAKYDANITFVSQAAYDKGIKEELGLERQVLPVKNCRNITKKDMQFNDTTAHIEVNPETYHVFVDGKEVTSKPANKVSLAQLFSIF
# [6] = tested on: murine mammary gland epithelium Eph4-Ev; assay: Sulforhodamine B antiproliferative assay, Eph4-Ev; format: cell-based; details: Mus musculus, compound 0.5 mM, 72 h, read-out: % Proliferation inhibition ± SD
# Experimental: as §1, §2
# [7] = tested on: mouse fibroblasts BALB/3T3; assay: Sulforhodamine B antiproliferative assay, BALB/3T3; format: cell-based; details: compound 0.5 mM, 72 h, read-out: % Proliferation inhibition ± SD
# Experimental: as §1, §2
# [8] = molecular target: purified urease from Sporosarcina pasteurii (SPU); parameters: method as in PMID 18717581, PMID 20684601, PMID 21559954, PMID 25699141; details: read-out: Ki against SPU; cited from earlier work
# [9] = read-out: IC500, without preincubation of cells with inhibitory compounds, 30-min reactions, 5 mM urea
# [10] = read-out: IC502h PBS, 2 h of preincubation with inhibitors in PBS
# [11] = cells grown with urea, 2 h of preincubation with inhibitors in PBS under microaerobic conditions, read-out: IC502h PBS
# [12] = cells grown with urea, 2 h of preincubation with inhibitors in growth medium under microaerobic conditions, read-out: IC502h medium
# [13] = cells grown with urea, without preincubation, read-out: IC500
# [14] = cells grown without urea, 2 h of preincubation with inhibitors in PBS under microaerobic conditions, read-out: IC502h PBS
# [15] = cells grown without urea, without preincubation, read-out: IC500
# [16] = IC500, without preincubation of cells with inhibitory compounds, 30-min reactions, 5 mM urea
# [17] = IC502h PBS, 2 h of preincubation with inhibitors in PBS
SMILES,"IC50 [1, 9] [µM]","IC50 [1, 10] [µM]",inhibition at 500 µM [2] [%],inhibition at 500 µM [3] [%],Ki [4] [µM],"IC50 [5, 11] [µM]","IC50 [5, 12] [µM]","IC50 [5, 13] [µM]","IC50 [5, 14] [µM]","IC50 [5, 15] [µM]",inhibition at 500 µM [6] [%],inhibition at 500 µM [7] [%],"IC50 [1, 16] [µM]","IC50 [1, 17] [µM]",Ki ([4]; Ki) [µM],Ki [8] [µM],"IC500 ([1]; without preincubation of cells with inhibitory compounds, 30-min reactions, 5 mM urea)","IC50 ([5]; cells grown without urea, preincubated cells, read-out: IC50) [µM]"
CCCCCCCCNCP(=O)(O)CN [Compound 15],> 2000,> 2000,0,1.8 ± 1.2,> 2000,712 ± 28,276 ± 17,1010 ± 84,638 ± 22,1260 ± 53,2.7 ± 1.1,0,,,,,,
CNCP(C)(=O)O [Compound 2],,,0,0,,468 ± 21,274 ± 87,597.4 ± 5.2,852 ± 40,480 ± 79,1.1 ± 1,1.4 ± 1.1,573 ± 76,306 ± 48,61.6 ± 3.5,,,
CCCNCP(=O)(O)CN [Compound 9],,,2.2 ± 1.5,0,,940 ± 59,553 ± 44,1500 ± 160,883 ± 96,772 ± 143,0,0.7 ± 0.6,746 ± 94,306 ± 43,22.1 ± 2.1,,,
"CNCP(=O)(O)CNC [Compound 21, bis(N-methylaminomethyl)phosphinic acid]",,,0,0,,549 ± 15,117 ± 7.4,443 ± 24,132 ± 21,581 ± 37,2.2 ± 1.5,0,1260 ± 189,269 ± 39,26.1 ± 1.8,,,
"CNCP(=O)(O)O [Compound 1, N-methylaminomethylphosphonic acid]",,,0,0,,349 ± 29,202 ± 43,400 ± 8.7,598 ± 81,316 ± 18,1.3 ± 2.3,2.7 ± 1.8,164 ± 24,110 ± 21,38.3 ± 1.1,,,
"CN(C)CP(C)(=O)O [Compound 3, N,N-dimethylaminomethyl-P-methylphosphinic acid]",,,,,,395 ± 37,304 ± 16,640 ± 18,765 ± 31,530 ± 24,,,179 ± 32,25.1 ± 4.9,9.27 ± 0.35,0.62,,
"NCP(=O)(O)CN [Compound 6, Bis(aminomethyl)phosphinic acid]",> 2000,> 2000,7.7 ± 2.4,0,,> 2000,> 2000,> 2000,611 ± 63,1300 ± 239,0,3.2 ± 1.6,,,61 ± 9.2,,complete lack of inhibitory effects,
CNCP(=O)(O)CN [Compound 7],,,0,0,,456 ± 45,574 ± 44,> 2000,418 ± 48,327 ± 68,3.9 ± 2.1,0,880 ± 105,440 ± 61,20.9 ± 2,,,< 500
